Patent publication US11000033B2, “Ketone or oxime compound, and herbicide” (NISSAN CHEMICAL CORPORATION, priority 2014, dated 2021)

Tests used:
Assay type in all cases: in vivo
[1] = system: Echinochloa oryzacola Vasing.; assay: Test Example 1: herbicidal activity, application before weed generation in submerged conditions (symbol A); settings: application herbicide amount 320 g/ha
Outline: (§1)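 Weed control was rated three weeks after treatment on a 0–5 scale, from 5% or lower up to 90% or more. Pre-emergence water-surface application of diluted emulsion at a predetermined rate was made on the day of sowing, in flooded (4 cm water) pots containing rice seedlings, kept at 25–30 °C under glass.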

Scirpus juncoides [2] = assay: Test Example 1: herbicidal activity, application before weed generation in submerged conditions (symbol B); settings: application herbicide amount 320 g/ha
Outline: as §1

Monochoria vaginalis = assay: Test Example 1: herbicidal activity, application before weed generation in submerged conditions (symbol C); settings: application herbicide amount 320 g/ha
Outline: as §1

transplanted rice plant = assay: Test Example 1: effect on crop, application before weed generation in submerged conditions (symbol a); settings: application herbicide amount 320 g/ha
Outline: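 Rice at 2.5 leaf stage transplanted into submerged soil (4 cm depth) sown with three weed species; herbicide applied before weed emergence.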

Scirpus juncoides [3] = assay: Test Example 2: herbicidal activity, application during weed generation in submerged conditions (symbol B); settings: Table 23; application herbicide amount 320 g/ha; grade 0-5 by criteria of Test Example 1
Outline: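 Alluvial soil in pots was flooded to a 4 cm water depth and sown with a mix of the three weed species, then grown in a greenhouse at 25° C. to 30° C. At the one- to two-leaf stage, an emulsifiable formulation diluted in water to a set dose was applied to the water surface. Effects were scored visually 3 weeks later.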

Setaria viridis = assay: Test Example 4: herbicidal effect by soil treatment (symbol G); settings: application herbicide amount 320 g/ha
Outline: (§2)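 Seeds were sown in sterilized diluvial soil, covered with about 1.5 cm of soil, and the soil surface was sprayed with a water-diluted emulsion of the compound at a predetermined rate. Plants grew in a greenhouse at 25° C. to 30° C.; effects were scored visually 3 weeks after application.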

Alopecurus myosuroides [4] = assay: Test Example 4: herbicidal effect by soil treatment (symbol J); settings: application herbicide amount 320 g/ha
Outline: as §2

beet = assay: Test Example 4: effect on crop by soil treatment (symbol f); settings: application herbicide amount 320 g/ha
Outline: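 Sterilized diluvial soil, spot sowing, ~1.5 cm soil cover; greenhouse 25–30° C.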

[5] = system: Echinochloa crus-galli var. crus-galli; assay: Test Example 5: herbicidal effect by foliage application, plastic box (symbol H); settings: 320 g/ha, 3 weeks after application
Outline: (§3)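 Post-emergence spray; diluvial soil (sterilized), ~1.5 cm seed cover; greenhouse 25–30° C; 14-day-old plants; water-diluted emulsion at predetermined dose; visual score at 3 wk post-treatment.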

Alopecurus myosuroides [6] = assay: Test Example 5: herbicidal effect by foliage application, plastic box (symbol J); settings: 320 g/ha, 3 weeks after application
Outline: as §3

soybean = assay: Test Example 5: effect on crop by foliage application, plastic box (symbol d); settings: 320 g/ha, 3 weeks after application
Outline: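 Seeds were sown in spots in sterilized diluvial soil held in a plastic box 21 cm × 13 cm × 7 cm deep, covered with about 1.5 cm of soil, and grown in a greenhouse at 25° C. to 30° C.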

SMILES | Herbicidal effect grade, A: Echinochloa oryzacola Vasing. [1] | Herbicidal effect grade, B: Scirpus juncoides (Scirpus juncoides [2]) | Herbicidal effect grade, C: Monochoria vaginalis (Monochoria vaginalis) | Effect grade on crop, a: transplanted rice plant (transplanted rice plant) | Herbicidal effect grade, B: Scirpus juncoides (Scirpus juncoides [3]) | G: Setaria viridis, herbicidal effect grade (Setaria viridis) | J: Alopecurus myosuroides, herbicidal effect grade (Alopecurus myosuroides [4]) | f: beet, effect on crop grade (beet) | H: Echinochloa crus-galli var. crus-galli, herbicidal effect grade [5] | J: Alopecurus myosuroides, herbicidal effect grade (Alopecurus myosuroides [6]) | d: soybean, effect on crop grade (soybean) | G (Setaria viridis) herbicidal effect grade (Setaria viridis) | J (Alopecurus myosuroides) herbicidal effect grade (Alopecurus myosuroides [4])
CCC(CCC1CC(O)=C(c2c(C)cc(C)cc2C)C1=O)=NOC (mixture of isomers) [4-001] | 0 (Herbicidal ratio of 5% or lower (almost no effect)) | 0 (Herbicidal ratio of 5% or lower (almost no effect)) | 0 (Herbicidal ratio of 5% or lower (almost no effect)) | 0 (Herbicidal ratio of 5% or lower (almost no effect)) | 0 (Herbicidal ratio of 5% or lower (almost no effect)) | 0 (Herbicidal ratio of 5% or lower (almost no effect)) | 3 (Herbicidal ratio of 40% or higher and lower than 70%) | 0 (Herbicidal ratio of 5% or lower (almost no effect)) | 2 (Herbicidal ratio of 20% or higher and lower than 40%) | 5 (Herbicidal ratio of 90% or more (almost completely withered)) | 0 (Herbicidal ratio of 5% or lower (almost no effect)) | – | –
CON=C(C)CC1CC(O)=C(c2c(C)cc(-n3cc(Cl)cn3)cc2C)C1=O (mixture of isomers) [6-004] | 5 (Herbicidal ratio of 90% or more (almost completely withered)) | 5 (Herbicidal ratio of 90% or more (almost completely withered)) | 2 (Herbicidal ratio of 20% or higher and lower than 40%) | 5 (Herbicidal ratio of 90% or more (almost completely withered)) | 4 (Herbicidal ratio of 70% or higher and lower than 90%) | 5 (Herbicidal ratio of 90% or more (almost completely withered)) | 5 (Herbicidal ratio of 90% or more (almost completely withered)) | – | 5 (Herbicidal ratio of 90% or more (almost completely withered)) | 5 (Herbicidal ratio of 90% or more (almost completely withered)) | 1 (Herbicidal ratio of 5% or higher and lower than 20%) | – | –
C#CCOC1=C(c2c(C)cc(C)cc2C)C(=O)C(CC(C)=NOC)C1 (stereo not shown) [1-008] | 5 (Herbicidal ratio of 90% or more (almost completely withered)) | 3 (Herbicidal ratio of 40% or higher and lower than 70%) | 0 (Herbicidal ratio of 5% or lower (almost no effect)) | 0 (Herbicidal ratio of 5% or lower (almost no effect)) | 2 (Herbicidal ratio of 20% or higher and lower than 40%) | – | – | – | 4 (Herbicidal ratio of 70% or higher and lower than 90%) | 5 (Herbicidal ratio of 90% or more (almost completely withered)) | 2 (Herbicidal ratio of 20% or higher and lower than 40%) | 4 (Herbicidal ratio of 70% or higher and lower than 90%) | 5 (Herbicidal ratio of 90% or more (almost completely withered))
CON=C(C)CC1CC(OC(=O)OC)=C(c2c(C)cc(C)cc2C)C1=O (stereo not shown) [1-014] | 5 (Herbicidal ratio of 90% or more (almost completely withered)) | 5 (Herbicidal ratio of 90% or more (almost completely withered)) | 2 (Herbicidal ratio of 20% or higher and lower than 40%) | 5 (Herbicidal ratio of 90% or more (almost completely withered)) | 3 (Herbicidal ratio of 40% or higher and lower than 70%) | – | – | – | 5 (Herbicidal ratio of 90% or more (almost completely withered)) | 5 (Herbicidal ratio of 90% or more (almost completely withered)) | 5 (Herbicidal ratio of 90% or more (almost completely withered)) | 3 (Herbicidal ratio of 40% or higher and lower than 70%) | 5 (Herbicidal ratio of 90% or more (almost completely withered))
Cc1cc(C)c(C2=C(O)CC(CC(=O)C(C)C)C2=O)c(C)c1 (stereo not shown) [2-016] | 4 (Herbicidal ratio of 70% or higher and lower than 90%) | 0 (Herbicidal ratio of 5% or lower (almost no effect)) | 0 (Herbicidal ratio of 5% or lower (almost no effect)) | 4 (Herbicidal ratio of 70% or higher and lower than 90%) | 0 (Herbicidal ratio of 5% or lower (almost no effect)) | 5 (Herbicidal ratio of 90% or more (almost completely withered)) | 4 (Herbicidal ratio of 70% or higher and lower than 90%) | – | 5 (Herbicidal ratio of 90% or more (almost completely withered)) | 5 (Herbicidal ratio of 90% or more (almost completely withered)) | 3 (Herbicidal ratio of 40% or higher and lower than 70%) | – | –
CCC(=O)CCC1CC(O)=C(c2c(C)cc(C)cc2C)C1=O (stereo not shown) [5-001] | 0 (Herbicidal ratio of 5% or lower (almost no effect)) | 0 (Herbicidal ratio of 5% or lower (almost no effect)) | 0 (Herbicidal ratio of 5% or lower (almost no effect)) | 0 (Herbicidal ratio of 5% or lower (almost no effect)) | 0 (Herbicidal ratio of 5% or lower (almost no effect)) | 0 (Herbicidal ratio of 5% or lower (almost no effect)) | 2 (Herbicidal ratio of 20% or higher and lower than 40%) | – | 3 (Herbicidal ratio of 40% or higher and lower than 70%) | 5 (Herbicidal ratio of 90% or more (almost completely withered)) | 0 (Herbicidal ratio of 5% or lower (almost no effect)) | – | –
CON=C(C)CC1CC(O)=C(c2c(C)cc(C(=O)OC)cc2C)C1=O (stereo not shown) [6-023] | 0 (Herbicidal ratio of 5% or lower (almost no effect)) | 0 (Herbicidal ratio of 5% or lower (almost no effect)) | 0 (Herbicidal ratio of 5% or lower (almost no effect)) | 4 (Herbicidal ratio of 70% or higher and lower than 90%) | – | 3 (Herbicidal ratio of 40% or higher and lower than 70%) | 4 (Herbicidal ratio of 70% or higher and lower than 90%) | – | 5 (Herbicidal ratio of 90% or more (almost completely withered)) | 5 (Herbicidal ratio of 90% or more (almost completely withered)) | 0 (Herbicidal ratio of 5% or lower (almost no effect)) | – | –
